Laboratory results: patent US20230277612A1, “SAPONIN DERIVATIVES FOR USE IN MEDICINE” (priority 2020, published 2023)
Values joined by “and” are separate entries in the source; they are usually repeats but may differ in a detail not shown here. Equal entries are not always repeated. Where two headings read alike, the source gives them in different places.

How the values were obtained:
[1] = Critical micellar concentration (CMC) by ANS fluorescence; format: physicochemical; settings: for CMC: Table A7, determined in PBS
Protocol: The critical micellar concentration (CMC) of saponins derived from Saponaria officinalis (SO) (Table A7) and derived from Quillaja saponaria (QS) (Table A8, and Table A9) was determined by the method of DeVendittis et al. (A fluorimetric method for the estimation of the critical micelle concentration of surfactants, Analytical Biochemistry, Volume 115, Issue 2, August 1981, Pages 278-286) as follows:
(§1) The emission spectrum of 8-Anilinonaphthalene-1-sulfonic acid (ANS) in either purified water (MQ) or PBS (Dulbecco's PBS+/+) was determined at dry weight concentrations of saponins ranging from 1 to 1400 pM to cover the range below and above the CMC. Above the CMC, the fluorescence yield of ANS increases and the wavelength of maximum emission decreases due to portioning of the fluorescent dye into micelles. Fluorescence yields were recorded on a Fluoroskan Ascent FL (Thermo Scientific) at an excitation wavelength of 355 nm, and an emission wavelength of 460 nm. 6 μg at a concentration of 75.86 pM of ANS were used per sample and measurement.
The critical micellar concentration (CMC) of saponins was determined by the method of DeVendittis et al. (A fluorimetric method for the estimation of the critical micelle concentration of surfactants, Analytical Biochemistry, Volume 115, Issue 2, August 1981, Pages 278-286) as follows:
as §1, with “μM” for “pM”

HeLa cells = assay: cells; format: cell-based
Protocol: (§2) (FIGS. 66a and 66B). Next toxicity was determined, for this the modified saponins were titrated on HeLa and A431 cells. […] Next toxicity was determined, for this the modified saponins were titrated on HeLa and A431 cells.

human red blood cells = assay: cells; format: cell-based
Protocol: Red blood cells (RBCs) were isolated from a buffy coat using a Ficoll gradient. The obtained RBC pellet (˜4-5 ml) was washed 2× with 50 ml DPBS (without Ca^2+/Mg^2+, PAN-Biotech GmbH). Cells were pelleted by centrifugation for 10 min, 800×g at RT. RBC were counted and resuspended at 500.000.000 c/ml in DPBS (without Ca^2+/Mg^2+), based on total cell count.
Saponin dilutions were prepared in DPBS (with Ca^2+/Mg^2+, PAN-Biotech GmbH), at 1.11× final strength. For positive lysis control a 0.02% Triton-X100 solution was prepared in DPBS^+/+. Of all compound solutions 135 μl was dispensed/well in a 96 well V-bottom plate. To this 15 μl RBC suspension was added and mixed shortly (10 sec-600 rpm). The plate was incubated 30 min at RT, with gentle agitation. Afterwards the plate was spun for 10 min at 800×g to pellet the RBC and 100-120 μl supernatant was transferred to a standard 96 wp (96 well-plate).
Saponin dilutions were prepared in DPBS (with Ca^2+/Mg^2+, PAN-Biotech GmbH), at 1.11× final strength. For positive lysis control a 0.02% Triton-X100 solution was prepared in DPBS+/+. Of all compound solutions 135 μl was dispensed/well in a 96 well V-bottom plate. To this 15 μl RBC suspension was added and mixed shortly (10 sec-600 rpm). The plate was incubated 30 min at RT, with gentle agitation. Afterwards the plate was spun for 10 min at 800×g to pellet the RBC and 100-120 μl supernatant was transferred to a standard 96 wp (96 well-plate).

[2] = tested on: EGFR expressing cells (A431); format: cell-based
[3] = tested on: EGFR expressing cells (HeLa); format: cell-based
A431 cells = assay: cells; format: cell-based
Protocol: as §2

[4] = Table A12, read-out: IC50 nM (Toxicity)
[5] = read-out: IC50 hemolytic activity
[6] = A431, + 5 pM EGFdianthin, read-out: IC50 endosomal escape enhancing activity
[7] = HeLa, + 5 pM EGFdianthin, read-out: IC50 endosomal escape enhancing activity
[8] = Table A5, saponin alone, read-out: IC50 nM (Toxicity)
[9] = Table A6, saponin alone, read-out: IC50 nM (Toxicity)
[10] = Table A5, HeLa cells, saponin titrated + 5 pM EGFdianthin, read-out: IC50 nM (Activity)
[11] = Table A5, read-out: IC50 nM (hemolysis)
[12] = Table A6, read-out: IC50 nM (hemolysis)
[13] = Homo sapiens, HeLa, Table A5, saponin alone, read-out: IC50 nM (Toxicity)
[14] = Homo sapiens, HeLa, saponin alone, read-out: IC50 toxicity
[15] = saponin alone, read-out: IC50 toxicity

## CC(=O)OC1C(C)OC(OC2C(C)OC(OC(=O)C34CCC(C)(C)CC3C3=CCC5C6(C)CCC(OC7OC(C(=O)O)C(O)C(OC8OCC(O)C(O)C8O)C7OC7OC(CO)C(O)C(O)C7O)C(C)(C=NNC(=O)CCCCCN7C(=O)C=CC7=O)C6CCC5(C)C3(C)CC4O)C(OC3OC(C)C(OC4OCC(O)C(OC5OC(CO)C(O)C(O)C5O)C4O)C(O)C3O)C2O)C(O)C1OC1OCC(O)C(O)C1O (stereo not drawn) [Molecule 2]
[1]
  CMC compared to corresponding underivatised saponin: increased CMC

## CC[C@H](C)[C@H](C[C@H](O)CC(=O)OC1C(C)OC(OC(=O)[C@]23CCC(C)(C)CC2C2=CCC4[C@@]5(C)CC[C@H](OC6OC(C(=O)NC(C)(CO)CO)C(O)C(OC7OCC(O)C(O)C7O)C6OC6OC(CO)C(O)C(O)C6O)[C@@](C)(/C=N/NC(=O)CCCCCN6C(=O)C=CC6=O)C5CC[C@@]4(C)[C@]2(C)C[C@H]3O)C(OC2OC(C)C(OC3OCC(O)C(OC4OCC(O)(CO)C4O)C3O)C(O)C2O)C1O)OC(=O)C[C@@H](O)C[C@H](OC1OC(CO)C(O)C1O)[C@@H](C)CC (stereo partly drawn) [QS21-(Ald-EMCH)-(Glu-AMPD)]
HeLa cells; [4]
  IC50: > 30000 nM
Human red blood cells; Table A12, read-out: IC50 nM (hemolysis)
  IC50: > 300000 nM
Human red blood cells; [5]
  IC50: > 300000 nM

## CC[C@H](C)[C@H](C[C@H](O)CC(=O)OC1C(C)OC(OC(=O)[C@]23CCC(C)(C)CC2C2=CCC4[C@@]5(C)CC[C@H](OC6OC(C(=O)O)C(O)C(OC7OCC(O)C(O)C7O)C6OC6OC(CO)C(O)C(O)C6O)[C@@](C)(/C=N/NC(=O)CCCCCN6C(=O)C=CC6=O)C5CC[C@@]4(C)[C@]2(C)C[C@H]3O)C(OC2OC(C)C(OC3OCC(O)C(OC4OCC(O)(CO)C4O)C3O)C(O)C2O)C1O)OC(=O)C[C@@H](O)C[C@H](OC1OC(CO)C(O)C1O)[C@@H](C)CC (stereo partly drawn) [QS21-Ald-EMCH]
HeLa cells; [4]
  IC50: > 30000 nM
[2]; [6]
  IC50: 900 nM
[3]; [7]
  IC50: 900 nM

## CC(=O)OC1C(C)OC(OC2C(C)OC(OC(=O)[C@]34CCC(C)(C)CC3C3=CCC5[C@@]6(C)CC[C@H](OC7OC(C(=O)O)C(O)C(OC8OCC(O)C(O)C8O)C7OC7OC(CO)C(O)C(O)C7O)[C@@](C)(C=O)C6CC[C@@]5(C)[C@]3(C)C[C@H]4O)C(OC3OC(C)C(OC4OCC(O)C(OC5OCC(O)C(O)C5O)C4O)C(O)C3O)C2O)C(O)C1OC1OCC(O)C(O)C1O (stereo partly drawn) [SO1832, reference compound]
Human red blood cells; [5]
  IC50: ~10000 nM

## CC1OC(OC2C(C)OC(OC(=O)C34CCC(C)(C)CC3C3=CCC5C6(C)CCC(OC7OC(C(=O)NC(C)(CO)CO)C(O)C(OC8OCC(O)C(O)C8O)C7OC7OC(CO)C(O)C(O)C7O)C(C)(C=NNC(=O)CCCCCN7C(=O)C=CC7=O)C6CCC5(C)C3(C)CC4O)C(OC3OC(C)C(OC4OCC(O)C(OC5OC(CO)C(O)C(O)C5O)C4O)C(O)C3O)C2O)C(O)C(OC2OCC(O)C(O)C2O)C1O (stereo not drawn) [SO1861-(Ald-EMCH)-(Ac—OH)-(Glu-AMPD)]
HeLa cells; [8]
  IC50: > 100000 nM
A431 cells; [9]
  IC50: > 100000 nM
[2]; Table A6, A431 cells, saponin titrated + 5 pM EGFdianthin, read-out: IC50 nM (Activity)
  IC50: > 20000 nM
[3]; [10]
  IC50: > 20000 nM
Human red blood cells; [11]
  IC50: > 1e+06 nM
Human red blood cells; [12]
  IC50: > 1e+06 nM

## CC(=O)OC1C(C)OC(OC2C(C)OC(OC(=O)C34CCC(C)(C)CC3C3=CCC5C6(C)CCC(OC7OC(C(=O)NC(C)(CO)CO)C(O)C(OC8OCC(O)C(O)C8O)C7OC7OC(CO)C(O)C(O)C7O)C(C)(C=NNC(=O)CCCCCN7C(=O)C=CC7=O)C6CCC5(C)C3(C)CC4O)C(OC3OC(C)C(OC4OCC(O)C(OC5OC(CO)C(O)C(O)C5O)C4O)C(O)C3O)C2O)C(O)C1OC1OCC(O)C(O)C1O (stereo not drawn) [SO1861-(Ald-EMCH)-(Glu-AMPD)]
HeLa cells; [8]
  IC50: > 100000 nM
A431 cells; [9]
  IC50: > 100000 nM
[1]
  CMC: >30 µM
Human red blood cells; [11]
  IC50: > 1e+06 nM
Human red blood cells; [12]
  IC50: > 1e+06 nM

## CC1OC(OC2C(C)OC(OC(=O)[C@]34CCC(C)(C)CC3C3=CCC5[C@@]6(C)CC[C@H](OC7OC(C(=O)O)C(O)C(OC8OCC(O)C(O)C8O)C7OC7OC(CO)C(O)C(O)C7O)[C@@](C)(CO)C6CC[C@@]5(C)[C@]3(C)C[C@H]4O)C(OC3OC(C)C(OC4OCC(O)C(OC5OC(CO)C(O)C(O)C5O)C4O)C(O)C3O)C2O)C(O)C(OC2OCC(O)C(O)C2O)C1O (stereo partly drawn) [SO1861-(Ald-OH)-(Ac—OH)]
HeLa cells; [8]
  IC50: > 100000 nM
A431 cells; [9]
  IC50: > 100000 nM
[1]
  CMC: >280 µM
Human red blood cells; [11]
  IC50: 200000 nM
Human red blood cells; [12]
  IC50: 200000 nM
Human red blood cells; [5]
  IC50: 200000 nM

## CC(=O)OC1C(C)OC(OC2C(C)OC(OC(=O)[C@]34CCC(C)(C)CC3C3=CCC5[C@@]6(C)CC[C@H](OC7OC(C(=O)O)C(O)C(OC8OCC(O)C(O)C8O)C7OC7OC(CO)C(O)C(O)C7O)[C@@](C)(/C=N/NC(=O)CCCCCN7C(=O)C[C@H](SCCO)C7=O)C6CC[C@@]5(C)[C@]3(C)C[C@H]4O)C(OC3OC(C)C(OC4OCC(O)C(OC5OC(CO)C(O)C(O)C5O)C4O)C(O)C3O)C2O)C(O)C1OC1OCC(O)C(O)C1O (stereo partly drawn) [SO1861-Ald-EMCH-blocked]
HeLa cells; [13]
  IC50: > 100000 nM
HeLa cells; [14]
  IC50: > 100000 nM
[1]
  CMC: 50 ± 5 µM
Human red blood cells; Homo sapiens, Erythrocyte, Table A5, read-out: IC50 nM (hemolysis)
  IC50: 300000 nM
Human red blood cells; Homo sapiens, Erythrocyte, Table A6, read-out: IC50 nM (hemolysis)
  IC50: 300000 nM
Human red blood cells; Homo sapiens, Erythrocyte, read-out: IC50 hemolytic activity
  IC50: 300000 nM

## CC(=O)OC1C(C)OC(OC2C(C)OC(OC(=O)[C@]34CCC(C)(C)CC3C3=CCC5[C@@]6(C)CC[C@H](OC7OC(C(=O)NCCN8C(=O)C=CC8=O)C(O)C(OC8OCC(O)C(O)C8O)C7OC7OC(CO)C(O)C(O)C7O)[C@@](C)(C=O)C6CC[C@@]5(C)[C@]3(C)C[C@H]4O)C(OC3OC(C)C(OC4OCC(O)C(OC5OC(CO)C(O)C(O)C5O)C4O)C(O)C3O)C2O)C(O)C1OC1OCC(O)C(O)C1O (stereo partly drawn) [SO1861-Glu-AEM]
HeLa cells; [13]
  IC50: > 100000 nM
HeLa cells; [14]
  IC50: > 100000 nM
A431 cells; Homo sapiens, A-431, Table A6, saponin alone, read-out: IC50 nM (Toxicity)
  IC50: > 100000 nM
A431 cells; Homo sapiens, A-431, text, saponin alone, read-out: IC50 toxicity
  IC50: > 100000 nM
[1]
  CMC: 45 ± 5 µM

## CC(=O)OC1C(C)OC(OC2C(C)OC(OC(=O)[C@]34CCC(C)(C)CC3C3=CCC5[C@@]6(C)CC[C@H](OC7OC(C(=O)NC(C)(CO)CO)C(O)C(OC8OCC(O)C(O)C8O)C7OC7OC(CO)C(O)C(O)C7O)[C@@](C)(C=O)C6CC[C@@]5(C)[C@]3(C)C[C@H]4O)C(OC3OC(C)C(OC4OCC(O)C(OC5OC(CO)C(O)C(O)C5O)C4O)C(O)C3O)C2O)C(O)C1OC1OC(C)C(O)C(O)C1O (stereo partly drawn) [SO1861-Glu-AMPD]
[1]
  CMC: 50 ± 5 µM

## Aescin [reference compound]
HeLa cells; [4]
  IC50: > 30000 nM
A431 cells; [15]
  IC50: > 30000 nM
Human red blood cells; [5]
  IC50: 10000 nM

## QS21 [reference compound]
HeLa cells; [15]
  IC50: 6000 nM and 10000 nM
[2]; [6]
  IC50: 90 nM
[3]; [7]
  IC50: 200 nM
[3]; [10]
  IC50: 200 nM
[3]; Table A12, HeLa cells, + 5 pM EGFdianthin, read-out: IC50 nM (Activity)
  IC50: 200 nM
